“Also recorded” adds a separate entry of the source. [ ]: non-standard residue; d: D form. The star is where a group is joined. Cha = N[C@@H](CC1CCCCC1)C(=O)O; Orn = NCCC[C@H](N)C(=O)O; 2Furoyl = O=C(c1ccco1)*; Mpa = O=C(O)CCS
Experiments:
macrophages = assay: Sensitivity of macrophages to IFNγ (iNOS expression, flow cytometry); assay type: cell-based; conditions: 100 microM; for enhanced sensitivity of macrophages to IFNγ induced by thrombin (iNOS): thrombin 50 iu
Experimental: In more detail, mechanistic insights: direct effect on monocyte/macrophage phenotype. Sensitivity of macrophages to IFNγ, as assessed by the proportion that express iNOS after stimulation.
The enhanced sensitivity to IFNγ induced by thrombin is inhibited by a PAR-1 antagonist—this is via expression of ABCA1 and membrane lipid rafts. […] BMM purified cells cultured in MCSF for 5 days. Cells then removed for 24 hours and incubated with thrombin (50 units) (if an antagonist or 3-mercaptopropionyl-F-Cha-Cha-RKPNDK was used cells were incubated for 2 hours with the antagonist or 3MP prior to thrombin stimulation to allow time for antagonist to dock with PAR). Cells then had media replaced with thrombin+ PAR reagent and IFN gamma at the dose described. For the PAR2 experiments it was at this point that PAR2 was added. Cells were then incubated for 24 further hours and then analysed by flow cytometry for iNOS. Pure PAR-1 antagonist (αagonist)=FLLRN; Pure PAR-2 agonist=2-Furoyl-LIGRLO-amide; 3-MP=3-mercaptopropionyl-F-Cha-Cha-RKPNDK; All used at 100 microM. Thrombin used at 50 iu

C57BL/6 mice [1] = assay: Delayed type hypersensitivity, contact sensitivity to oxazolone (ear swelling); assay type: in vivo, mouse; conditions: WT mice, reagent at second exposure to oxazolone; for ear swelling: ear thickness 24 hours later
Experimental: C57BL/6 mice were topically sensitised with oxazolone on the shaved abdomen on day 0. Treatment with either saline, PTL060 (10 mg/g), equimolar PTL0GC-1 or equimolar *3-MP was given on day 3 and day 5, the last immediately prior to re-challenge with oxazolone onto the right ear. The left ear was treated with vehicle alone. On day 6, the difference in swelling of the right and left ears was measured and is presented as D mean ear thickness.
This example uses a model of contact hypersensitivity. Here, mice are challenged on the abdomen with the contact sensitizer oxazolone, before a re-challenge […] on both sides of the ear with oxazolone (on the right) or vehicle alone (on the left).
Swelling of the ears, measured with a micrometer, reflects the influx of monocytes/macrophages and T cells in a typical delayed-type hypersensitivity (DTH) response.
FIG. 19: Model of DTH involving contact sensitivity to oxazolone. WT mice were administered a PAR-1 agonist or antagonist at the point of second exposure to oxazolone, before ear thickness was assessed 24 hours later, and mice sacrificed for immunohistological analysis of cross sections of the affected ears, to determine the proportional area occupied by CD68+ cells (macrophages). *p<0.05. **p<0.01. ***p<0.001

[2] = test system: Mouse primary smooth muscle cells (SMCs) or endothelial cells (EC); assay: In vitro secretion of chemokines by SMC/EC after PAR reagents; assay type: cell-based; set-up: secretion of MIF (and CCL-2) compared with PAR-1 agonists / secretion of CX3CL1 (and CCL5) compared with a PAR-1 agonist: dose or concentration left out as unconfirmed; conditions: for secretion of CX3CL1 (and CCL5) compared with a PAR-1 agonist / secretion of MIF (and CCL-2) compared with PAR-1 agonists: SMC, 12 hour stimulation, 48 hour culture
Experimental: (§1) In more detail, Mechanistic insights—monocyte recruitment: In vitro secretion of chemokines by PAR-1 and PAR-2 agonists. Mouse primary smooth muscle cells (SMCs) or endothelial cells (EC) at a density of 1×10^6 cells/well of a 24-well plate were serum-starved for 24 hours before addition of FLLRN (PAR-1 […], 10 μM), 2-Furoyl-LIGRLO-Amide (PAR-2 agonist, 10 μM) or 3-MP (3-mercaptopropionyl-F-Cha-Cha-RKPNDK 10 μM) for 12 hours, following which thrombin (10 nM) was added for 1 hour, before a final 48 hours incubation in 2% FCS DMEM. Supernatants of stimulated cells were collected to measure MIF, CCL2, CCL5 and CX3CL1 using ELISA, following manufacturer's protocol.
(§2) FIG. 22: Secretion of MIF and CX3CL1 by SMC after 12 hour stimulation with either a pure PAR-1 agonist, pure PAR-2 agonist, or by 3-mercaptoproprionyl(MP)—F-Cha-Cha-RKPNDK amide, followed by 48 hour culture period. All used at […]. Patterns of secretion of CCL-2 resemble those of MIF, whereas secretion of CCL5 resembles CX3CL1.

SOCS3 = SOCS3 expression of macrophages; assay type: cell-based
Source text: This is a well-described inhibitor of IFNγ signalling. In the right graph, the thrombin-induced sensitivity to IFNγ, as assessed by change in iNOS expression, is shown.

C57BL/6 mice [3] = assay: Delayed type hypersensitivity, contact sensitivity to oxazolone (ear swelling); assay type: in vivo, mouse; conditions: 10 microM/g
PAR1 = target: T1, PAR1 (Homo sapiens, UniProt P25116); conditions: Kawabata et al 1999, page 365; cited from earlier work
T1 sequence (P25116 22-425): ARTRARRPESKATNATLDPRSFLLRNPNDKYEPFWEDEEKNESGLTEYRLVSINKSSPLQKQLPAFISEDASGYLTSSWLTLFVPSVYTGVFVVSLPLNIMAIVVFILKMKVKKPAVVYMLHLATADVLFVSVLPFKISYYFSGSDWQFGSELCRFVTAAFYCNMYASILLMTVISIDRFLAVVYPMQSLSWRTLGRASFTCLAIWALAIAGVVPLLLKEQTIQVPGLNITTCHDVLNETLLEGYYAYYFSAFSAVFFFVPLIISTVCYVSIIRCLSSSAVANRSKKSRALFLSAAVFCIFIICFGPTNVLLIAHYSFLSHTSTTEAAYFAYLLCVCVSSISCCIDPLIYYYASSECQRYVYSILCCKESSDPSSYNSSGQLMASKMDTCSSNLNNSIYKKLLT

ABCA1 = ABCA1 expression of macrophages incubated with thrombin; assay type: cell-based; conditions: titrated in during incubation of macrophages with thrombin
Source text: In more detail, mechanistic insights: direct effect on monocyte/macrophage phenotype through SOCS3. To explain how 3-MP inhibits the enhanced sensitivity to IFNγ induced by thrombin.

PAR2 = target: T2, PAR2 (Homo sapiens, UniProt P55085); conditions: Kawabata et al 1999, page 365; cited from earlier work
T2 sequence (P55085 26-397): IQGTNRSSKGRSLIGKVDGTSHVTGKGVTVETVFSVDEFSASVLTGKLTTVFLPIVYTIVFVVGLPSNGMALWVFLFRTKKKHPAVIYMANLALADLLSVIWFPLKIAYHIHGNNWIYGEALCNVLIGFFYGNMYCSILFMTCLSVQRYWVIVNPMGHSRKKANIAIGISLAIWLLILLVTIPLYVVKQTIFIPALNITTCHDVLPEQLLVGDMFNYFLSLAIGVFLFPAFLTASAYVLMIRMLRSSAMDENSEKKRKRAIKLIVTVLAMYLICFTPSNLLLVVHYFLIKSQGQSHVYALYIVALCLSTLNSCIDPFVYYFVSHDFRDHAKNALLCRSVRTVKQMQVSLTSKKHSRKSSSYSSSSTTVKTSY

murine SMC = assay: Thrombin-induced secretion of chemokines by SMC with PAR reagents; assay type: cell-based, mouse; set-up: thrombin-mediated MIF (and CCL-2) secretion / thrombin-mediated CX3CL1 secretion: dose or concentration left out as unconfirmed; conditions: for thrombin-mediated CX3CL1 secretion / thrombin-mediated MIF (and CCL-2) secretion: SMC, 12 hour; for thrombin-induced secretion of CX3CL1 and CCL5 reduced by: murine SMC, 10 μM, thrombin 10 nM
Experimental: as §1, with “[…] ,” for “following which thrombin (10 nM) was added for 1 hour,”
In more detail, mechanistic insights—monocyte recruitment: In vitro secretion of chemokines by thrombin—differential impact of PAR-1 antagonist and 3-mercaptopropionyl-F-Cha-Cha-RKPNDK. Secretion of chemokines from murine SMC after stimulation with thrombin alone (nil), or in presence of a pure PAR-1 antagonist, or 3-MP*.
as §2
Chemokines measured 48 hours later. Secretion of CCL-2 resembles that of MIF, whereas secretion of CCL5 resembles CX3CL1.

ApoE−/− mice = conditions: 30-week-old animals; cited from earlier work
[4] = target: T3, protease activated receptor 1 (PAR-1) (UniProt P30558)
T3 sequence: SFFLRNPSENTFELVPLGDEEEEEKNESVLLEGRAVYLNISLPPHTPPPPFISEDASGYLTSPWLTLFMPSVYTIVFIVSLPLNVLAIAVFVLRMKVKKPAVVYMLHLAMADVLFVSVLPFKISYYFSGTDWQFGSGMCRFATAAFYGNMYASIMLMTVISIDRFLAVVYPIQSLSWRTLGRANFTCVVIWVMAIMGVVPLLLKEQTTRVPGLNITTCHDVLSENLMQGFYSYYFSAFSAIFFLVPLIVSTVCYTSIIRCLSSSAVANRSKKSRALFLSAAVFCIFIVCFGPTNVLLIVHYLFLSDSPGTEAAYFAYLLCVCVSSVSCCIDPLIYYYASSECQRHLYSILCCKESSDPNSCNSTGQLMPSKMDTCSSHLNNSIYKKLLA

Compound: 2-Furoyl-LIGRLO-amide (2Furoyl-LIGRL[Orn]-NH2) [PAR-2 agonist]
- enhanced sensitivity of macrophages to IFNγ induced by thrombin (iNOS) (macrophages): reduces the sensitivity of macrophages to IFNγ induced by thrombin; also recorded: dampens the enhanced sensitivity
- ear swelling (C57BL/6 mice [1]): inhibits
- secretion of CX3CL1 (and CCL5) compared with a PAR-1 agonist [2]: stimulated better
- secretion of MIF (and CCL-2) compared with PAR-1 agonists [2]: less so
- SOCS3 expression (SOCS3): induces SOCS3 expression

Compound: 3-mercaptopropionyl-Phe-Cha-Cha-Arg-Lys-Pro-Asn-Asp-Lys-NH2 ([Mpa]F[Cha][Cha]RKPNDK-NH2; SMILES N=C(N)NCCC[C@H](NC(=O)[C@H](CC1CCCCC1)NC(=O)[C@H](CC1CCCCC1)NC(=O)[C@H](Cc1ccccc1)NC(=O)CCS)C(=O)N[C@@H](CCCCN)C(=O)N1CCC[C@H]1C(=O)N[C@@H](CC(N)=O)C(=O)N[C@@H](CC(=O)O)C(=O)N[C@@H](CCCCN)C(N)=O) [3-MP, parental untailed compound of PTL032 and PTL0GC-1]
- background response of control macrophages to IFNγ (macrophages): inhibits the background response of control macrophages to IFNγ
- enhanced sensitivity of macrophages to IFNγ induced by thrombin (iNOS) (macrophages): more potent than a pure PAR-1 antagonist
- monocyte recruitment and phenotype in DTH (C57BL/6 mice [3]): reduced monocyte recruitment with switched phenotype
- infiltration by CD68+ cells compared with both reagents together (C57BL/6 mice [1]): inhibits CD68 infiltration better than when both reagents are administered together
- ear swelling (C57BL/6 mice [1]): inhibits ear swelling and infiltration by CD68+ cells better than when either a pure PAR-1 antagonist or PAR-2 agonist are administered separately
- behaviour in chemokine secretion assay ([2]; 10 μM, 12 hours, MIF, CCL2, CCL5, CX3CL1 by ELISA): behaves as a pure PAR-2 agonist
- secretion of CX3CL1 (and CCL5) compared with a PAR-1 agonist [2]: stimulated better
- secretion of MIF (and CCL-2) compared with PAR-1 agonists [2]: less so
- SOCS3 expression (SOCS3): induces SOCS3 expression
- activity at PAR1 (PAR1): antagonist
- thrombin-induced ABCA1 expression (ABCA1): inhibits thrombin-induced ABCA1 expression
- activity at PAR2 (PAR2): agonist
- thrombin-mediated CX3CL1 secretion (murine SMC): maintained
- thrombin-mediated MIF (and CCL-2) secretion (murine SMC): inhibited equally
- thrombin-induced secretion of CX3CL1 and CCL5 reduced by (murine SMC): 0-10%

Compound: N=C(N)c1ccc(CNC(=O)[C@@H]2CCN2C(=O)[C@H](NCC(=O)O)C2CCCCC2)cc1 [Megalatran]
- burden of advanced atheromatous lesions (ApoE−/− mice): reduced burden of advanced atheromatous lesions

Compound: FLLRN [PAR-1 antagonist]
- enhanced sensitivity of macrophages to IFNγ induced by thrombin (iNOS) (macrophages): inhibited
- ear swelling (C57BL/6 mice [1]): inhibited
- thrombin-mediated CX3CL1 secretion (murine SMC): inhibited
- thrombin-mediated MIF (and CCL-2) secretion (murine SMC): inhibited equally
- thrombin-induced secretion of CX3CL1 and CCL5 reduced by (murine SMC): 50%

Compound: FSLLRY-NH2 trifluoroacetate salt [PAR-2 antagonist]
- ear swelling (C57BL/6 mice [1]): exacerbates

Compound: thrombin
- MIF and CCL2 production by cultured mouse SMCs after stimulation by thrombin (ELISA) [4]: thrombin-mediated chemokine expression was primarily via PAR-1

From patent US20230167155A1, “COMPOSITIONS AND METHODS” (KING'S COLLEGE LONDON, priority 2020, published 2023)
